Assay results: PMC8536124 (International Journal of Molecular Sciences, 2021)

What was measured:
UACC-257 = experiment: NCI-60 screening (SRB); type: cell-based, human; settings: five-dose
Renal Cancer = experiment: NCI-60 screening (SRB), subpanel; type: cell-based
Text: (§1) The experimental data allow the assessment of the cytostatic effect, indicated by growth inhibition values ranging between 0 and 100, as well as of the cytotoxic effect, indicated by negative values.
(§2) The mean GI50 (molar concentration of the compound that inhibits 50% net cell growth), TGI (molar concentration of the compound leading to the total inhibition), and LC50 (molar concentration of the compound leading to 50% net cell death (presented in negative logarithm)) values across each cell line are shown in Table 2.
(§3) The selectivity index (SI), calculated as the ratio between the full panel MG_MID60 (μM) of compounds 4, 6, and 9 by their respective subpanels MG_MID of the cell line (μM), was introduced as a quantification tool for the selectivity of each compound in terms of anticancer effect (Table 3).
(§4) Primary anticancer assays were performed according to the NCI protocol, as described elsewhere (see e.g., http://dtp.nci.nih.gov accessed on 1 November 2018). The compounds were added at a single concentration, and the cell cultures were incubated for 48 h. The end point determinations were made with a protein-binding dye, sulforhodamine B (SRB). […] The percentage of growth was evaluated spectrophotometrically versus controls not treated with test agents after 48 h exposure and using SRB protein assay to estimate cell viability or growth. Three antitumor activity dose-response parameters were calculated for each cell line. Furthermore, mean graph midpoints (MG_MID) were calculated for each of the parameters, giving an average activity parameter over all cell lines for the tested compound. For the MG_MID calculation, insensitive cell lines were included with the highest concentration tested.

NSC lung cancer = experiment: NCI-60 screening (SRB), subpanel; type: cell-based
Text: as §1, §2, §3, §4

Prostate cancer = experiment: NCI-60 screening (SRB), subpanel; type: cell-based
Text: as §1, §2, §3, §4

Breast cancer = experiment: NCI-60 screening (SRB), subpanel; type: cell-based
Text: as §1, §2, §3, §4

Leukemia = experiment: NCI-60 screening (SRB), subpanel; type: cell-based
Text: as §1, §2, §3, §4

Colon Cancer = experiment: NCI-60 screening (SRB), subpanel; type: cell-based
Text: as §1, §2, §3, §4

Ovarian cancer = experiment: NCI-60 screening (SRB), subpanel; type: cell-based
Text: as §1, §2, §3, §4

Melanoma = experiment: NCI-60 screening (SRB), subpanel; type: cell-based
Text: as §1, §2, §3, §4

MDA-MB-435 = experiment: NCI-60 screening (SRB); type: cell-based, human; settings: five-dose
NCI-H23 = experiment: NCI-60 screening (SRB); type: cell-based, human; settings: five-dose
NCI-H322M = experiment: NCI-60 screening (SRB); type: cell-based, human; settings: five-dose
HCC-2998 = experiment: NCI-60 screening (SRB); type: cell-based, human; settings: five-dose
SK-MEL-5 = experiment: NCI-60 screening (SRB); type: cell-based, human
DU-145 = experiment: NCI-60 screening (SRB); type: cell-based, human; settings: five-dose
MOLT-4 = experiment: NCI-60 screening (SRB); type: cell-based, human; settings: five-dose
CAKI-1 = experiment: NCI-60 screening (SRB); type: cell-based, human; settings: CAKI-1, five-dose
OVCAR-3 = experiment: NCI-60 screening (SRB); type: cell-based, human; settings: five-dose
HCT-116 = experiment: NCI-60 screening (SRB); type: cell-based, human; settings: five-dose
HOP-62 = experiment: NCI-60 screening (SRB); type: cell-based, human; settings: five-dose
OVCAR-8 = experiment: NCI-60 screening (SRB); type: cell-based, human; settings: five-dose
TK-10 = experiment: NCI-60 screening (SRB); type: cell-based, human; settings: five-dose
MALME-3M = experiment: NCI-60 screening (SRB); type: cell-based, human; settings: MALME-3M, five-dose
786-0 = experiment: NCI-60 screening (SRB); type: cell-based, human; settings: five-dose
LOX IMVI = experiment: NCI-60 screening (SRB); type: cell-based, human; settings: LOX IMVI, five-dose
[1] = Homo sapiens, read-out: LC50 (the source's name)

SMILES: CCN1CCN(C(=O)[C@]23CCC(C)(C)C[C@H]2C2=CC[C@@H]4[C@@]5(C)C/C(=C/c6cccnc6)C(=O)C(C)(C)[C@@H]5CC[C@@]4(C)[C@]2(C)CC3)CC1 [Compound 6]
- GI50 (UACC-257; Homo sapiens): 1610 nM
- CC50 (UACC-257; [1]): 33.8 µM
- TGI (UACC-257): 4.29 µM
- GI50 (Renal Cancer; Homo sapiens, Renal cancer subpanel, five-dose, read-out: GI50 MG_MID): 1970 nM
- LC50 (50% net cell kill) (Renal Cancer; Homo sapiens, Renal cancer subpanel, five-dose, read-out: LC50 MG_MID): 20.2 µM
- SI (TGI) (Renal Cancer; Renal Cancer, MG_MID60/subpanel MG_MID): 0.96
- TGI MG_MID (Renal Cancer; Renal cancer subpanel, five-dose): 6.54 µM
- GI50 (NSC lung cancer; Homo sapiens, NSC lung cancer subpanel, five-dose, read-out: GI50 MG_MID): 1910 nM
- CC50 (NSC lung cancer; Homo sapiens, NSC lung cancer subpanel, five-dose, read-out: LC50 MG_MID): 29.7 µM
- TGI MG_MID (NSC lung cancer; NSC lung cancer subpanel, five-dose): 5.83 µM
- SI (TGI) (NSC lung cancer; NSCL cancer, MG_MID60/subpanel MG_MID): 1.08
- GI50 (Prostate cancer; Homo sapiens, Prostate cancer subpanel, five-dose, read-out: GI50 MG_MID): 1420 nM
- CC50 (Prostate cancer; Homo sapiens, Prostate cancer subpanel, five-dose, read-out: LC50 MG_MID): 8.01 µM
- TGI MG_MID (Prostate cancer; Prostate cancer subpanel, five-dose): 3.34 µM
- SI (TGI) (Prostate cancer; Prostate cancer, MG_MID60/subpanel MG_MID): 1.89
- TGI MG_MID (Breast cancer; Breast cancer subpanel, five-dose): 5.30 µM
- SI (TGI) (Breast cancer; Breast cancer, MG_MID60/subpanel MG_MID): 1.17
- GI50 (Breast cancer; Homo sapiens, Breast cancer subpanel, five-dose, read-out: GI50 MG_MID): 1670 nM
- CC50 (Breast cancer; Homo sapiens, Breast cancer subpanel, five-dose, read-out: LC50 MG_MID): 39.6 µM
- CC50 (Leukemia; Homo sapiens, Leukemia subpanel, five-dose, read-out: LC50 MG_MID): > 100 µM
- TGI MG_MID (Leukemia; Leukemia subpanel, five-dose): 5.10 µM
- SI (TGI) (Leukemia; Leukemia, MG_MID60/subpanel MG_MID): 0.30
- TGI MG_MID (Colon Cancer; Colon Cancer subpanel, five-dose): 3.51 µM
- SI (TGI) (Colon Cancer; Colon Cancer, MG_MID60/subpanel MG_MID): 1.99
- GI50 (Colon Cancer; Homo sapiens, Colon Cancer subpanel, five-dose, read-out: GI50 MG_MID): 1520 nM
- CC50 (Colon Cancer; Homo sapiens, Colon Cancer subpanel, five-dose, read-out: LC50 MG_MID): 25.4 µM
- GI50 (Ovarian cancer; Homo sapiens, Ovarian cancer subpanel, five-dose, read-out: GI50 MG_MID): 2150 nM
- CC50 (Ovarian cancer; Homo sapiens, Ovarian cancer subpanel, five-dose, read-out: LC50 MG_MID): 36.2 µM
- SI (TGI) (Ovarian cancer; Ovarian Cancer, MG_MID60/subpanel MG_MID): 1.52
- TGI MG_MID (Ovarian cancer; Ovarian cancer subpanel, five-dose): 4.14 µM
- GI50 (Melanoma; Homo sapiens, Melanoma subpanel, five-dose, read-out: GI50 MG_MID): 1540 nM
- CC50 (Melanoma; Homo sapiens, Melanoma subpanel, five-dose, read-out: LC50 MG_MID): 9.2 µM
- TGI MG_MID (Melanoma; Melanoma subpanel, five-dose): 3.21 µM
- SI (TGI) (Melanoma; Melanoma, MG_MID60/subpanel MG_MID): 1.96
- GI50 (MDA-MB-435; Homo sapiens): 1480 nM
- CC50 (MDA-MB-435; [1]): 6.52 µM
- TGI (MDA-MB-435): 3.11 µM
- GI50 (NCI-H23; Homo sapiens): 2100 nM
- CC50 (NCI-H23; [1]): 27.8 µM
- TGI (NCI-H23): 5.85 µM
- GI50 (NCI-H322M; Homo sapiens): 2870 nM
- CC50 (NCI-H322M; [1]): 33.9 µM
- TGI (NCI-H322M): 9.25 µM
- GI50 (HCC-2998; Homo sapiens): 1580 nM
- CC50 (HCC-2998; [1]): 6.17 µM
- TGI (HCC-2998): 3.12 µM
- GI50 (SK-MEL-5; Homo sapiens, SK-MEL-5, five-dose): 1630 nM
- CC50 (SK-MEL-5; Homo sapiens, SK-MEL-5, five-dose, read-out: LC50 (the source's name)): 5.54 µM
- Growth % (SK-MEL-5; SK-MEL-5, 1 dose 10 µM): −91.03%
- TGI (SK-MEL-5; SK-MEL-5, five-dose): 3.00 µM
- cell death (SK-MEL-5; SK-MEL-5 melanoma, 1 dose 10 µM): 88.15%
- GI50 (DU-145; Homo sapiens): 1830 nM
- CC50 (DU-145; [1]): 8.23 µM
- TGI (DU-145): 3.88 µM
- GI50 (MOLT-4; Homo sapiens): 1430 nM
- CC50 (MOLT-4; [1]): > 100 µM
- TGI (MOLT-4): >100 µM
- TGI (CAKI-1): 11.8 µM
- GI50 (CAKI-1; Homo sapiens): 2080 nM
- CC50 (CAKI-1; [1]): 45.3 µM
- GI50 (OVCAR-3; Homo sapiens): 1510 nM
- CC50 (OVCAR-3; [1]): 5.73 µM
- TGI (OVCAR-3): 2.95 µM
- GI50 (HCT-116; Homo sapiens): 1010 nM
- CC50 (HCT-116; [1]): 4.89 µM
- TGI (HCT-116): 2.22 µM
- GI50 (HOP-62; Homo sapiens): 1880 nM
- LC50 (HOP-62; Homo sapiens): 7.47 µM
- TGI (HOP-62): 3.75 µM
- GI50 (OVCAR-8; Homo sapiens): 2140 nM
- CC50 (OVCAR-8; [1]): > 100 µM
- TGI (OVCAR-8): 5.54 µM
- GI50 (TK-10; Homo sapiens): 3.86 µM
- CC50 (TK-10; [1]): 54.1 µM
- TGI (TK-10): 15.4 µM
- GI50 (MALME-3M; Homo sapiens): 1530 nM
- CC50 (MALME-3M; [1]): 5.54 µM
- TGI (MALME-3M): 2.91 µM
- GI50 (786-0; Homo sapiens): 1600 nM
- CC50 (786-0; [1]): 5.91 µM
- TGI (786-0): 3.08 µM
- GI50 (LOX IMVI; Homo sapiens): 1360 nM
- CC50 (LOX IMVI; [1]): 5.45 µM
- TGI (LOX IMVI): 2.73 µM
